Experimental findings from patent US20260285855A1, “HETEROARYL DERIVATIVES AS DDRS INHIBITORS” (CHIESI FARMACEUTICI S.P.A., priority 2023, published 2026) are described below.

A word on the Ki: it is the dissociation constant of the complex between target and ligand, obtained from inhibition or displacement.

Bounds are passed on as bounds.

One assay addresses T1, DDR1 (Homo sapiens, UniProt Q08345).
T1 construct: purchased Carna Biosciences
Briefly: LanthaScreen Europium Kinase Binding assay, DDR1. The conditions noted are these: 5 nM DDR1, 20 nM Kinase Tracer 178, 1 h at rt; Ki from IC50 by Cheng-Prusoff; read-out: Ki DDR1. As for the experimental part:
(§1) DDR1 and DDR2 binding assays were performed using Life Technologies LanthaScreen™ Europium Kinase Binding assay. […] IC50 values were determined in GraphPad Prism 7.0 software, using 4 parameter model: log (inhibitor) vs. response. IC50 values were converted in Ki using the Cheng-Prusoff equation (Ki-IC50/(1+ [Tracer]/Kd).
On the technique in general: TR-FRET usually uses a lanthanide donor and a delayed reading to cut background.

For another assay, the target named is T2, DDR2 (Homo sapiens, UniProt Q16832).
T2 construct: purchased Life Technologies
T2 sequence (Q16832 22-855): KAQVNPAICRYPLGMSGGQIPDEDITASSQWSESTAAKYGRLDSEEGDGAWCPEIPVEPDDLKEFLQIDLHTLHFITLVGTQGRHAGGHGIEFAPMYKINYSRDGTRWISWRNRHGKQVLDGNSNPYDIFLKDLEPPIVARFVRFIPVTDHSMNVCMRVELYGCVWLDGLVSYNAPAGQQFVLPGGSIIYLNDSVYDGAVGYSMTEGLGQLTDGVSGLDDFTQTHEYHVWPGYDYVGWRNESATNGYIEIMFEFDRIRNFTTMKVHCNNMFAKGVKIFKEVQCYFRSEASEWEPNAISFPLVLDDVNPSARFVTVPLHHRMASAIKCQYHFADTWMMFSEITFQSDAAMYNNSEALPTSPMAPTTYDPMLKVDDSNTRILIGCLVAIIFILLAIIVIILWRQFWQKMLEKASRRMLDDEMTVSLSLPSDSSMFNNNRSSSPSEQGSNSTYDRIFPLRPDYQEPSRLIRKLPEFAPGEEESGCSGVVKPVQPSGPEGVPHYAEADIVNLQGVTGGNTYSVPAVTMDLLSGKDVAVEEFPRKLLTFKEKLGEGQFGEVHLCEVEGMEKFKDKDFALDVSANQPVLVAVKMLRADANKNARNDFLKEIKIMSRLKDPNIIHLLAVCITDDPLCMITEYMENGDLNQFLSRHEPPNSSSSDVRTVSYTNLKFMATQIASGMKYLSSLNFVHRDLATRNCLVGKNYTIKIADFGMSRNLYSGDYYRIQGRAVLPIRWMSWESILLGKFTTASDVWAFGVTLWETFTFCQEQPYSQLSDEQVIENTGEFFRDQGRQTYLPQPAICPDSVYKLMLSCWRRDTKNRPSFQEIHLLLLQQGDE
Put plainly: LanthaScreen Europium Kinase Binding assay, DDR2. The conditions noted are these: 5 nM DDR2, 10 nM Kinase Tracer 178, 1 h at rt; Ki from IC50 by Cheng-Prusoff; read-out: Ki DDR2. As for the experimental part:
as §1

T1 sequence (Q08345 19-913): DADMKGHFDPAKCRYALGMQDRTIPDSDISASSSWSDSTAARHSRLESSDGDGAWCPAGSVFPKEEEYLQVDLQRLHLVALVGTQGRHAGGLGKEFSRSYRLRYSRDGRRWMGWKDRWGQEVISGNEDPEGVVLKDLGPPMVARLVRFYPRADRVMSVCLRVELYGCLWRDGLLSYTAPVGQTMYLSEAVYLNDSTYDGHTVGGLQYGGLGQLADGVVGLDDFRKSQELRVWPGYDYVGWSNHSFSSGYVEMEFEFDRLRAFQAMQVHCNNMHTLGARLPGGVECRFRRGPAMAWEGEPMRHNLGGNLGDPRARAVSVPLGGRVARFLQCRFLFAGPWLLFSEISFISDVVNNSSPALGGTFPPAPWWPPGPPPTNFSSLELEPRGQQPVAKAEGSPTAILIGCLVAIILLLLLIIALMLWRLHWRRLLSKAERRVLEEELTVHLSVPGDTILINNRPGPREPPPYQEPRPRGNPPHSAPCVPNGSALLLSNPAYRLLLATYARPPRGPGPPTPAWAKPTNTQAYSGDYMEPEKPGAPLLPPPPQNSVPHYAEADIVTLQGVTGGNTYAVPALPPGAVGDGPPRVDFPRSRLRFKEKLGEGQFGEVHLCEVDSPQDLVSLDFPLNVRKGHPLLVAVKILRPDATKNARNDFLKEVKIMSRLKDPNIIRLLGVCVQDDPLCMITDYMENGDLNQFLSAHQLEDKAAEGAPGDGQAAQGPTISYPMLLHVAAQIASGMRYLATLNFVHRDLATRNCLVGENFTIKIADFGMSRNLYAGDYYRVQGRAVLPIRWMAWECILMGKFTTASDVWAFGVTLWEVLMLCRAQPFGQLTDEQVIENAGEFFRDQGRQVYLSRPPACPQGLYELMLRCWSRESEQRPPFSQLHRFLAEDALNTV

On to `CN(C(=O)Nc1cccc(C(F)(F)F)c1)C1CC2(C1)CN(C(=O)c1cnn3ccncc13)C2` [Example 25, 1-methyl-1-(2-(pyrazolo[1,5-a]pyrazine-3-carbonyl)-2-azaspiro[3.3]heptan-6-yl)-3-(3-(trifluoromethyl)phenyl)urea], for which the results for the Ki at DDR1 and on DDR2 were 5 to 25 nM and 25 to 100 nM, respectively.

As to `O=C(CC1CC2(C1)CN(C(=O)c1cnn3ccsc13)C2)Nc1cccc(C(F)(F)F)c1` [Example 27, 2-(2-(pyrazolo[5,1-b]thiazole-7-carbonyl)-2-azaspiro[3.3]heptan-6-yl)-N-(3-(trifluoromethyl)phenyl)acetamide], the Ki at DDR1 and at DDR2 was below 5 nM each time.

For the compound `O=C(CC1CC2(C1)CN(C(=O)c1cnc3ccccn13)C2)Nc1cccc(C(F)(F)F)c1` [Example 28, 2-(2-(imidazo[1,2-a]pyridine-3-carbonyl)-2-azaspiro[3.3]heptan-6-yl)-N-(3-(trifluoromethyl)phenyl)acetamide], the Ki at DDR1 was below 5 nM; at DDR2 it was 5 to 25 nM.

Consider `O=C(Nc1cccc(CC(F)(F)F)c1)NC1CC2(C1)CN(C(=O)c1cnn3ccsc13)C2` [Example 31, 1-(2-(pyrazolo[5,1-b]thiazole-7-carbonyl)-2-azaspiro[3.3]heptan-6-yl)-3-(3-(2,2,2-trifluoroethyl)phenyl)urea], for which the Ki on DDR1 and on DDR2 was below 5 nM each time.

`Nc1cccn2ncc(C(=O)N3CC4(CC(NC(=O)Nc5cccc(C(F)(F)F)c5)C4)C3)c12` [Example 32, 1-(2-(4-aminopyrazolo[1,5-a]pyridine-3-carbonyl)-2-azaspiro [3.3]heptan-6-yl)-3-(3-(trifluoromethyl)phenyl)urea]: the Ki at DDR1 was below 5 nM; on DDR2 it was 5 to 25 nM.

In the case of `COc1cccc(NC(=O)NC2CC3(C2)CN(C(=O)c2cnn4ccsc24)C3)c1` [Example 33, 1-(3-methoxyphenyl)-3-(2-(pyrazolo[5,1-b]thiazole-7-carbonyl)-2-azaspiro[3.3]heptan-6-yl)urea], the inhibition constant Ki is 5 to 25 nM at DDR1 and above 100 nM at DDR2.

With `Cn1ccn2ncc(C(=O)N3CC4(CC(NC(=O)Nc5cccc(CC(F)(F)F)c5)C4)C3)c12` [Example 34, 1-(2-(1-methyl-1H-imidazo[1,2-b]pyrazole-7-carbonyl)-2-azaspiro[3.3]heptan-6-yl)-3-(3-(2,2,2-trifluoroethyl)phenyl)urea], the Ki on DDR1 and on DDR2 was below 5 nM throughout.

For the compound `CC(C)c1cncc(NC(=O)NC2CC3(C2)CN(C(=O)c2cnn4ccsc24)C3)c1` [Example 35, 1-(5-isopropylpyridin-3-yl)-3-(2-(pyrazolo[5,1-b]thiazole-7-carbonyl)-2-azaspiro[3.3]heptan-6-yl)urea], the Ki on DDR1 was below 5 nM; on DDR2, 5 to 25 nM.

On to `COc1ccc(OC(F)(F)F)cc1NC(=O)NC1CC2(C1)CN(C(=O)c1cnn3ccn(C)c13)C2` [Example 36, 1-(2-methoxy-5-(trifluoromethoxy)phenyl)-3-(2-(1-methyl-1H-imidazo[1,2-b]pyrazole-7-carbonyl)-2-azaspiro[3.3]heptan-6-yl)urea], for which the figures for the Ki at DDR1 and on DDR2 were below 5 nM and 5 to 25 nM, respectively.

With `Cn1ccn2ncc(C(=O)N3CC4(CC(NC(=O)Nc5cncc(C(F)(F)F)c5)C4)C3)c12` [Example 37, 1-(2-(1-methyl-1H-imidazo[1,2-b]pyrazole-7-carbonyl)-2-azaspiro [3.3]heptan-6-yl)-3-(5-(trifluoromethyl)pyridin-3-yl)urea], the Ki on DDR1 was below 5 nM; on DDR2, 5 to 25 nM.

As to `COc1ccc(Cl)cc1NC(=O)NC1CC2(C1)CN(C(=O)c1cnn3ccn(C)c13)C2` [Example 38, 1-(5-chloro-2-methoxyphenyl)-3-(2-(1-methyl-1H-imidazo[1,2-b]pyrazole-7-carbonyl)-2-azaspiro[3.3]heptan-6-yl)urea], the Ki on DDR1 is below 5 nM; on DDR2, 5 to 25 nM.

Take `Cn1ccn2ncc(C(=O)N3CC4(CC(NC(=O)Nc5cc(C#N)cc(C(F)(F)F)c5)C4)C3)c12` [Example 39, 1-(3-cyano-5-(trifluoromethyl)phenyl)-3-(2-(1-methyl-1H-imidazo[1,2-b]pyrazole-7-carbonyl)-2-azaspiro[3.3]heptan-6-yl)urea]: the Ki on DDR1 and at DDR2 was below 5 nM throughout.

On to `O=C(Nc1cccc(C(F)(F)F)c1)NC1CC2(C1)CN(C(=O)c1cnn3ccccc13)C2` [Example 40, 1-(2-(pyrazolo[1,5-a]pyridine-3-carbonyl)-2-azaspiro[3.3]heptan-6-yl)-3-(3-(trifluoromethyl)phenyl)urea], for which the Ki at DDR1 and at DDR2 was below 5 nM throughout.

For the compound `O=C(Nc1cc(CO)cc(C(F)(F)F)c1)NC1CC2(C1)CN(C(=O)c1cnn3ccsc13)C2` [Example 41, 1-(3-(hydroxymethyl)-5-(trifluoromethyl)phenyl)-3-(2-(pyrazolo[5,1-b]thiazole-7-carbonyl)-2-azaspiro[3.3]heptan-6-yl)urea], the results for the Ki on DDR1 and on DDR2 were below 5 nM and 5 to 25 nM, respectively.

On to `Cn1ccn2ncc(C(=O)N3CC4(CC(NC(=O)Nc5cccc(S(F)(F)(F)(F)F)c5)C4)C3)c12` [Example 42, 1-(2-(1-methyl-1H-imidazo[1,2-b]pyrazole-7-carbonyl)-2-azaspiro[3.3]heptan-6-yl)-3-(3-(pentafluoro-16-sulfaneyl)phenyl)urea], for which the values for the Ki at DDR1 and on DDR2 were below 5 nM and 5 to 25 nM, respectively.

Regarding `Cc1ccc(-n2nc(C(C)(C)C)cc2NC(=O)NC2CC3(C2)CN(C(=O)c2cnn4ccn(C)c24)C3)cc1` [Example 43, 1-(3-(tert-butyl)-1-(p-tolyl)-1H-pyrazol-5-yl)-3-(2-(1-methyl-1H-imidazo[1,2-b]pyrazole-7-carbonyl)-2-azaspiro[3.3]heptan-6-yl)urea], the Ki on DDR1 is below 5 nM; at DDR2, 5 to 25 nM.

As for `O=C(Nc1cccc(C(F)(F)F)c1)NC1CC2(C1)CN(C(=O)c1ccncc1)C2` [Example 44, 1-(2-isonicotinoyl-2-azaspiro[3.3]heptan-6-yl)-3-(3-(trifluoromethyl)phenyl)urea], the Ki on DDR1 and on DDR2 was 25 to 100 nM throughout.

Regarding `Cn1ccn2ncc(C(=O)N3CC4(CC(NC(=O)Nc5cc(C(F)(F)F)ccc5Cl)C4)C3)c12` [Example 45, 1-(2-chloro-5-(trifluoromethyl)phenyl)-3-(2-(1-methyl-1H-imidazo[1,2-b]pyrazole-7-carbonyl)-2-azaspiro[3.3]heptan-6-yl)urea], the Ki at DDR1 and at DDR2 was below 5 nM in each case.

With `O=C(Nc1cccc(C(F)(F)F)c1)NC1CC2(C1)CN(C(=O)c1ccnc3cc[nH]c13)C2` [Example 46, 1-(2-(1H-pyrrolo[3,2-b]pyridine-7-carbonyl)-2-azaspiro[3.3]heptan-6-yl)-3-(3-(trifluoromethyl)phenyl)urea], the Ki at DDR1 and at DDR2 was below 5 nM each time.

Regarding `CN(C(=O)Nc1cncc(C(F)(F)F)c1)C1CC2(C1)CN(C(=O)c1cnn3ccsc13)C2` [Example 47, 1-methyl-1-(2-(pyrazolo[5,1-b]thiazole-7-carbonyl)-2-azaspiro[3.3]heptan-6-yl)-3-(5-(trifluoromethyl)pyridin-3-yl)urea], the values for the Ki at DDR1 and on DDR2 were below 5 nM and 5 to 25 nM, respectively.
